Test results from publication PMC8536600 (Cancer Chemotherapy and Pharmacology, 2021).
Read-outs that look alike come from different tables or passages of the source. Each block holds one compound with its values, some of them ahead of it.

Key:
CYP3A4 = conditions: cited from earlier work
[1] = Steady state Ruxolitinib trough serum concentrations in GvHD patients in clinical routine (LC-MS/MS); format: in vivo, human
Text: Patients were enrolled in a noninterventional prospective clinical trial at the University Hospital of Würzburg between February 2019 and February 2021. The study was approved by the Ethics Commission of the University of Würzburg (ref 199/18-am). All performed procedures were in accordance with the Declaration of Helsinki. Written informed consent was obtained from all patients. […] After enrollment blood samples and patient data were collected regularly during routine outpatient visits for 1 year. Treatment was managed at the discretion of the treating physician.
Serum samples were collected at each outpatient visit during routine blood withdrawal. Patients were asked to take Ruxolitinib after blood withdrawal. Date and time of last administration and blood withdrawal were recorded. Samples obtained at least 48 h after initiation or modification of therapy were considered steady state samples [27]. Samples obtained between eight and 30 h after last administration (depending on dosing scheme) were considered trough levels.
In brief, after protein precipitation with acetonitrile separation was achieved on a Waters XBridge Phenyl 3.5 µm (2.1 × 50 mm) column using gradient elution (flow rate 400 μL/min). […] Lower level of quantification (LLOQ) of the method was 2 ng/mL. Concentrations < LLOQ were excluded from further statistical analysis but included as censored data (between 0 ng/mL and LLOQ) in the popPK analysis.
(§1) Data were collected and processed using Microsoft Excel 2016 Version 16.0 (Microsoft Corporation, Redmond, WA, USA). Statistical calculations and visualization of results were performed with R Studio Version 1.2.5042 (RStudio Incorporation, Boston, MA, USA) and running R version 4.0.5 (R Foundation for Statistical Computing, Vienna, Austria, 2020). […] To fully display the degree of variability, concentrations were also summarized across all patients, stratified by dosing scheme. Pairwise comparisons were performed using Wilcoxon rank-sum test. Wilcoxon-signed-rank test was used for […] samples. For comparisons between more than two groups the Kruskal–Wallis one-way analysis of variance combined with Dunn’s test post hoc was used. Spearman’s correlation was used for analysis of AE. Logistic regression followed by receiver operator characteristic (ROC) analysis was used to evaluate the risk for the occurrence of AE of any grade or type on a visit in relation to the corresponding trough concentration on that visit. Due to the explorative nature of the study, p values obtained from multiple comparisons were not corrected for multiple testing. A p value < 0.05 was considered statistically significant. A Spearman’s rho (ρ) correlation was defined as follows: 0 to 0.3 or 0 to −0.3, weak; 0.3 to 0.7 or −0.3 to −0.7, moderate and 0.7 to 1 or −0.7 to −1, strong.

[2] = Exploratory population pharmacokinetic (popPK) analysis in GvHD patients; format: in vivo, human; conditions: for RUV b (residual unexplained variability, proportional error) / ωCL/F (inter-individual variability on CL/F) / ωV (inter-individual variability on Vc/F): as standard deviation of normal distribution
Method: An exploratory popPK analysis was conducted to identify relevant covariates influencing drug exposure, to predict the influence of strong CYP3A4 or CYP2C9 inhibitors or PPI and to generate population estimates for apparent oral clearance (CL/F) and apparent central volume of distribution (Vc/F) as classical statistical analysis was not suitable due to the unbalanced number of samples per patient. The analysis was conducted on the individual raw data (as opposed to the descriptive statistics) using Monolix 2020R1 (Antony, France: Lixoft SAS, 2020) and was based on a previously published popPK model by Chen et al. investigating pharmacokinetics in patients with primary and secondary myelofibrosis (MF).
Oral pharmacokinetics were described by a two-compartment model using first order absorption with lag time and linear elimination from the first compartment only. The population mean values for CL/F and Vc/F were re-estimated using the SAEM algorithm implemented in Monolix. The remaining parameters, except for the covariate model, were fixed to the original values. As in the original model, all pharmacokinetic parameters were assumed to be log-normally distributed. Dichotomous categorical covariates, were implemented as follows:1 logCL/Ftypical=logCL/Fpop+β^COV with COV being 0 or 1 encoding for the presence or absence of covariate effect.
Continuous covariates were scaled to the population mean values using the following exponential relationship:2 logCL/Ftypical=logCL/Fpop+β∙COV with COV being the value of individual covariate, e.g., scaled eGFR = eGFR/70.2.
Inter-individual variability (η) was implemented for CL/F and Vc/F according to: 3 logCL/Find=logCL/Ftypical+ηind,CLFwithηCL/F∼N0,ωCL/F2logVc/Find=logVc/Ftypical+ηind,Vc/FwithηVc/F∼N0,ωVc/F2
Residual unexplained variability (RUV) was modeled using a proportional error model represented by the parameter b and the following equation:4 Concobs=Concpred∙1+ϵwithϵ∼N(0,b^2)
A stepwise approach was used to develop the covariate model. Covariate effects were assessed using the Wald test and by comparing objective function values (OFV, which is the −2-log-likelihood) and derived descriptors such as Bayesian Information Criteria (BIC), corrected Bayesian Information Criteria (cBIC), and Akaike Information Criteria (AIC). The criterion for forward inclusion was an improvement of the OFV (p ≤ 0.1). In the backward elimination, a limit for the p value of < 0.05 was applied. The following covariates were tested: the presence of strong or moderate CYP3A4 or CYP2C9 inhibitors on CL/F, the presence of PPI on F (as relative bioavailability), aspartate aminotransferase (AST) on CL/F, total body weight on Vc/F, eGFR on CL/F, sex on CL/F, and smoking habit on CL/F.

[3] = Observed concentrations versus concentrations simulated with Chen et al.'s popPK model for myelofibrosis patients; parameters: species or system human; conditions: simulated with Chen et al.'s MF model, lower than observed
Text: The model published by Chen et al. was also encoded in R using the mrgsolve package for R [30]. Applying patient covariates and dosing schemes, the model was used to predict every observed concentration of every patient included in our study based on individual patient covariates and dosing data.

[4] = Clinical and laboratory adverse events (CTCAE v5.0) in relation to Ruxolitinib trough serum concentration; format: in vivo, human; conditions: for Mean trough concentration in group: logistic regression on at least three AE
Method: Adverse events (AE) were registered by questioning patients at each sampling time point. Patients were specifically asked for AE occurring in ≥ 1/100 patients according to the prescribing information. Clinical AE were graded according to the […] (CTCAE) Version 5.0 [26]. Further recorded patient data included age, sex, height, weight, ethnicity, smoking status, dosing regimen, and comedication. Relevant laboratory parameters were recorded in parallel to blood sampling (estimated glomerular filtration rate (eGFR), serum creatinine, serum albumin, total cholesterol, total bilirubin, hemoglobin, white blood cell count, absolute neutrophil count, platelet count, aspartate, and alanine aminotransferase).
as §1

[5] = parameters: method as in Chen et al., J Clin Pharmacol. 2013;53(7):721-30; conditions: fixed, ref Chen et al., J Clin Pharmacol. 2013;53(7):721-30, cited from earlier work
[6] = cited from earlier work
[7] = daily dose 5-< 20 mg, 51 samples
[8] = daily dose > 20-40 mg, 3 samples
[9] = popPK analysis in patients with aGvHD

Compound: CC[C@H]1OC(=O)[C@H](C)[C@@H](O[C@H]2C[C@@](C)(OC)[C@@H](O)[C@H](C)O2)[C@H](C)[C@@H](O[C@@H]2O[C@H](C)C[C@H](N(C)C)[C@H]2O)[C@](C)(O)C[C@@H](C)CN(C)[C@H](C)[C@@H](O)[C@]1(C)O [Azithromycin]
- CYP3A4 (inhibitor / inducer) (CYP3A4): inhibitor

- Range of individual mean trough serum concentrations ([1]; 20 mg daily, n = 20 individuals): 5.6 to 99.8 ng/mL
- Median of individual mean trough serum concentrations ([1]; 20 mg daily, steady state, n = 20 individuals): 39.9 ng/mL
- Range of individual mean trough serum concentrations ([1]; 5-< 20 mg daily, n = 8 individuals): 7.7 to 46.8 ng/mL
- Median of individual mean trough serum concentrations ([1]; 5-< 20 mg daily, steady state, n = 8 individuals): 26.2 ng/mL
- Median of individual mean trough serum concentrations ([1]; > 20-40 mg daily, steady state, n = 2 individuals): 15 ng/mL
- Steady state trough serum concentration of all samples across all individuals, Median ([1]; daily dose 20 mg, 120 samples): 40.5 ng/mL
- Steady state trough serum concentration of all samples across all individuals, Range ([1]; daily dose 20 mg, 120 samples): 2.7 to 229 ng/mL
- Steady state trough serum concentration of all samples across all individuals, Median [1, 7]: 17.5 ng/mL
- Steady state trough serum concentration of all samples across all individuals, Range [1, 7]: 2.2 to 155 ng/mL
- Steady state trough serum concentration of all samples across all individuals, Median [1, 8]: 25.1 ng/mL
- Steady state trough serum concentration of all samples across all individuals, Range [1, 8]: 4.3 to 28.5 ng/mL
- Steady state trough serum concentration of all samples across all individuals, Median ([1]; daily dose: All, 174 samples): 31.4 ng/mL
- Steady state trough serum concentration of all samples across all individuals, Range ([1]; daily dose: All, 174 samples): 2.2 to 229 ng/mL
- Trough concentrations under dual CYP inhibition ([1]; two patients receiving Posaconazole plus Atorvastatin or Amiodarone, mostly above this value): > 80 ng/mL
- CL/F, population mean ([2]; base model): 8.55 L/h
- Vc/F, population mean ([2]; base model): 64.8 L
- RUV b (residual unexplained variability, proportional error) ([2]; base model): 0.50
- ωCL/F (inter-individual variability on CL/F) ([2]; base model): 0.52
- ωV (inter-individual variability on Vc/F) ([2]; base model): 0.25
- Reduction of CL/F due to coadministration of at least one strong CYP3A4 or CYP2C9 inhibitor ([2]; compared to study patients not receiving relevant strong inhibitors, back transformation of β): 15%
- Vc/F, population mean ([2]; covariate model): 61.9 L
- βCL, STRONG_INH (covariate effect of strong CYP3A4 or CYP2C9 inhibitors on CL/F) ([2]; covariate model): -0.16
- CL/F, population mean (typical CL/F) ([2]; covariate model including strong CYP inhibitors as covariate): 9.74 L/h
- Share of inter-individual variability on CL/F explained by strong CYP3A4 or CYP2C9 inhibitors ([2]; covariate model vs base model): about 4%
- RUV b (residual unexplained variability, proportional error) ([2]; covariate model): 0.50
- ωCL/F (inter-individual variability on CL/F) ([2]; covariate model): 0.48
- ωV (inter-individual variability on Vc/F) ([2]; covariate model): 0.29
- Effect of simultaneous administration of PPI on Ruxolitinib exposure ([2]; covariate tested on relative bioavailability): did not affect Ruxolitinib exposure
- Reduction of Ruxolitinib clearance in GvHD population ([2]; in comparison to the population of Chen et al. (patients with MF)): approximately 50%
- Median paired difference between observed and simulated serum concentrations ([3]; non-trough concentrations): 64.9 ng/mL
- Median paired difference between observed and simulated serum concentrations ([3]; trough concentrations): 27.1 ng/mL
Compound: N#CC[C@H](C1CCCC1)n1cc(-c2ncnc3[nH]ccc23)cn1 [Ruxolitinib]
- All trough serum concentrations at 5 mg daily ([1]; 5 mg daily, 3 of 4 samples < LLOQ (2 ng/mL)): ^aAll trough serum concentrations at 5 mg daily were ≤ 2.17 ng/mL (3 of 4 samples < LLOQ)
- Median of individual mean trough serum concentrations ([1]; 20 mg daily, patients not requiring AE-related dose reduction, n = 18): 39.8 ng/mL
- Median of individual mean trough serum concentrations ([1]; 20 mg daily, patients who had dose reductions for AE, before reduction, n = 4): 60.6 ng/mL
- Median of mean trough concentrations ([1]; patients with AE-related dose reduction, after dose reduction, n = 4): 28.4 ng/mL
- Clinical AE reported at the time of blood sampling, total number ([4]; 29 GvHD patients, all grades): 302
- Clinical AE of grade 1, number ([4]; CTCAE grade 1): 250
- Clinical AE of grade 2, number ([4]; CTCAE grade 2): 46
- Share of all reported clinical AE of grade 3 ([4]; CTCAE grade 3): 2.0%
- Clinical AE of grade 4 or 5 ([4]; CTCAE grade 4 or 5): no AE of grade 4 or 5
- Average clinical AE reported at each sampling time point ([4]; grade 1): 0.95
- Average clinical AE reported at each sampling time point ([4]; grade 2): 0.18
- Average clinical AE reported at each sampling time point ([4]; grade 3): 0.02
- Mean trough concentration in group ([4]; first of both groups as printed): 35.9 ng/mL
- Mean trough concentration in group ([4]; second of both groups as printed): 62.8 ng/mL
- Correlation between trough concentration and occurrence of grade 1 AE on the same visit ([4]; vertigo and cephalgia, p < 0.05): significant correlation
- Effect of Ruxolitinib exposure on thrombocyte count, absolute neutrophil count and bilirubin ([4]; visual analysis of the data): did not reveal obvious effects
- Q/F, population mean ([5]; base model): 2.53 L/h
- TLag, population mean ([5]; base model): 0.0545 h
- Vper/F, population mean ([5]; base model): 11.2 L
- ka, population mean ([5]; base model): 4.12 h⁻¹
- Q/F, population mean ([5]; covariate model): 2.53 L/h
- TLag, population mean ([5]; covariate model): 0.0545 h
- Vper/F, population mean ([5]; covariate model): 11.2 L
- ka, population mean ([5]; covariate model): 4.12 h⁻¹
- CL/F for a typical female ([6]; patients with MF): 17.7 L/h
- CL/F for a typical male ([6]; patients with MF): 22.1 L/h
- Lower oral clearance in comparison to MF patients [6, 9]: 66.7%
- Slower rate of absorption in comparison to MF patients [6, 9]: 28%

Compound: C=C[C@H]1C[N@@]2CC[C@H]1C[C@H]2[C@H](O)c1ccnc2ccc(OC)cc12 [Quinine]
- CYP3A4 (inhibitor / inducer) (CYP3A4): inducer / inhibitor

Compound: CN(C)C(=O)C(CCN1CCC(O)(c2ccc(Cl)cc2)CC1)(c1ccccc1)c1ccccc1 [Loperamide]
- CYP3A4 (inhibitor / inducer) (CYP3A4): inhibitor
- CYP3A4 Strength (CYP3A4): strong
